Measured values: patent US20100048696A1, “AGRICULTURAL DISEASE CONTROL AGENT” (Idemitsu Kosan Co., Ltd., priority 2007, published 2010)
Like-named read-outs stand apart in the source and are kept apart here.

Experiments:
Rhizoctonia solani = assay: Material disinfection test; format: cell-based; settings: 5 minutes
Botrytis cinerea = assay: Material disinfection test; format: cell-based; settings: 5 minutes
Burkholderia glumae = assay: Material disinfection test; format: cell-based; settings: 5 minutes
Fusarium oxysporum = assay: Material disinfection test; format: cell-based; settings: 5 minutes
Pythium ultimum = assay: Material disinfection test; format: cell-based; settings: 5 minutes
Burkholderia plantarii = assay: Material disinfection test; format: cell-based; settings: 5 minutes
Pyricularia oryzae = format: cell-based; settings: 5 minutes
Erwinia chrysanthemi = assay: Material disinfection test; format: cell-based; settings: 5 minutes
[1] = test system: Erwinia carotovora var. cartovora; assay: Test using potatoes: blackleg pathogenesis after cutting with disinfected knife; format: in vivo, potatoes Norin No. 1; settings: for Degree of pathogenesis: knife immersed 5 seconds at 5° C., average of 5 potatoes, about two months after seeding
[2] = test system: Erwinia carotovora var. cartovora; assay: Basic test: cutting knife disinfection, blackleg pathogens; format: cell-based; settings: knife immersed 5 seconds
[3] = test system: Clavibacter michiganense subsp. Nebraskense (ATCC27822); assay: Basic test: cutting knife disinfection, ring rot pathogens; format: cell-based; settings: knife immersed 5 seconds
[4] = test system: bacteria pathogens and filamentous fungi pathogens; format: cell-based
Ralstonia solanacearum = format: cell-based; settings: 5 minutes

With O=C(O)/C=C\C(=O)O [Maleic acid] the “average value of viable filamentous fungi counts on all materials examined” value (Rhizoctonia solani; 2 times solution sprayed) was 0 cfu/ml, the “average value of viable filamentous fungi counts on all materials examined” value (Rhizoctonia solani; 5 times solution sprayed) was 0 cfu/ml and the “average value of viable filamentous fungi counts on all materials examined” value (Rhizoctonia solani; 25 times solution sprayed) was 0 cfu/ml. For the same compound, the “average value of viable filamentous fungi counts on all materials examined” value (Rhizoctonia solani; 50 times solution sprayed) was 0 cfu/ml, the “average value of viable filamentous fungi counts on all materials examined” value (Rhizoctonia solani; 100 times solution sprayed) was 0 cfu/ml and the “average value of viable filamentous fungi counts on all materials examined” value (Rhizoctonia solani; 200 times solution sprayed) was 2.5 × 10^2 cfu/ml. For the same compound, the “average value of viable filamentous fungi counts on all materials examined” value (Rhizoctonia solani; 500 times solution sprayed) was 3.1 × 10^2 cfu/ml, the “average value of viable filamentous fungi counts on all materials examined” value (Botrytis cinerea; 2 times solution sprayed) was 0 cfu/ml and the “average value of viable filamentous fungi counts on all materials examined” value (Botrytis cinerea; 5 times solution sprayed) was 0 cfu/ml. For the same compound, the “average value of viable filamentous fungi counts on all materials examined” value (Botrytis cinerea; 25 times solution sprayed) was 0 cfu/ml, the “average value of viable filamentous fungi counts on all materials examined” value (Botrytis cinerea; 50 times solution sprayed) was 0 cfu/ml and the “average value of viable filamentous fungi counts on all materials examined” value (Botrytis cinerea; 100 times solution sprayed) was 0 cfu/ml. For the same compound, the “average value of viable filamentous fungi counts on all materials examined” value (Botrytis cinerea; 200 times solution sprayed) was 1.7 × 10^2 cfu/ml, the “average value of viable filamentous fungi counts on all materials examined” value (Botrytis cinerea; 500 times solution sprayed) was 1.0 × 10^2 cfu/ml and the “Average value of viable bacteria counts on all materials examined” value (“Average value of viable bacteria counts” below) (Burkholderia glumae; 2 times solution sprayed) was 0 cfu/ml. For the same compound, the “Average value of viable bacteria counts” value (Burkholderia glumae; 5 times solution sprayed) was 0 cfu/ml, the “Average value of viable bacteria counts” value (Burkholderia glumae; 25 times solution sprayed) was 0 cfu/ml and the “Average value of viable bacteria counts” value (Burkholderia glumae; 50 times solution sprayed) was 0 cfu/ml. The “Average value of viable bacteria counts” value (Burkholderia glumae; 100 times solution sprayed) was 0 cfu/ml, the “Average value of viable bacteria counts” value (Burkholderia glumae; 200 times solution sprayed) was 93 cfu/ml and the “Average value of viable bacteria counts” value (Burkholderia glumae; 500 times solution sprayed) was 5.0 × 10^3 cfu/ml. For the same compound, the “average value of viable filamentous fungi counts on all materials examined” value (Fusarium oxysporum; 2 times solution sprayed) was 0 cfu/ml, the “average value of viable filamentous fungi counts on all materials examined” value (Fusarium oxysporum; 5 times solution sprayed) was 0 cfu/ml and the “average value of viable filamentous fungi counts on all materials examined” value (Fusarium oxysporum; 25 times solution sprayed) was 0 cfu/ml. For the same compound, the “average value of viable filamentous fungi counts on all materials examined” value (Fusarium oxysporum; 50 times solution sprayed) was 0 cfu/ml, the “average value of viable filamentous fungi counts on all materials examined” value (Fusarium oxysporum; 100 times solution sprayed) was 0 cfu/ml and the “average value of viable filamentous fungi counts on all materials examined” value (Fusarium oxysporum; 200 times solution sprayed) was 1.1 × 10^2 cfu/ml. The “average value of viable filamentous fungi counts on all materials examined” value (Fusarium oxysporum; 500 times solution sprayed) was 7.8 × 10^2 cfu/ml, the “average value of viable filamentous fungi counts on all materials examined” value (Pythium ultimum; 2 times solution sprayed) was 0 cfu/ml and the “average value of viable filamentous fungi counts on all materials examined” value (Pythium ultimum; 5 times solution sprayed) was 0 cfu/ml. For the same compound, the “average value of viable filamentous fungi counts on all materials examined” value (Pythium ultimum; 25 times solution sprayed) was 0 cfu/ml, the “average value of viable filamentous fungi counts on all materials examined” value (Pythium ultimum; 50 times solution sprayed) was 0 cfu/ml and the “average value of viable filamentous fungi counts on all materials examined” value (Pythium ultimum; 100 times solution sprayed) was 0 cfu/ml. For the same compound, the “average value of viable filamentous fungi counts on all materials examined” value (Pythium ultimum; 200 times solution sprayed) was 73 cfu/ml, the “average value of viable filamentous fungi counts on all materials examined” value (Pythium ultimum; 500 times solution sprayed) was 3.1 × 10^3 cfu/ml and the “Average value of viable bacteria counts” value (Burkholderia plantarii; 2 times solution sprayed) was 0 cfu/ml. The “Average value of viable bacteria counts” value (Burkholderia plantarii; 5 times solution sprayed) was 0 cfu/ml, the “Average value of viable bacteria counts” value (Burkholderia plantarii; 25 times solution sprayed) was 0 cfu/ml and the “Average value of viable bacteria counts” value (Burkholderia plantarii; 50 times solution sprayed) was 0 cfu/ml. The “Average value of viable bacteria counts” value (Burkholderia plantarii; 100 times solution sprayed) was 0 cfu/ml, the “Average value of viable bacteria counts” value (Burkholderia plantarii; 200 times solution sprayed) was 65 cfu/ml and the “Average value of viable bacteria counts” value (Burkholderia plantarii; 500 times solution sprayed) was 1.5 × 10^2 cfu/ml. The “average value of viable filamentous fungi counts on all materials examined” value (Pyricularia oryzae; 2 times solution sprayed) was 0 cfu/ml, the “average value of viable filamentous fungi counts on all materials examined” value (Pyricularia oryzae; 5 times solution sprayed) was 0 cfu/ml and the “average value of viable filamentous fungi counts on all materials examined” value (Pyricularia oryzae; 25 times solution sprayed) was 0 cfu/ml. For the same compound, the “average value of viable filamentous fungi counts on all materials examined” value (Pyricularia oryzae; 50 times solution sprayed) was 0 cfu/ml, the “average value of viable filamentous fungi counts on all materials examined” value (Pyricularia oryzae; 100 times solution sprayed) was 0 cfu/ml and the “average value of viable filamentous fungi counts on all materials examined” value (Pyricularia oryzae; 200 times solution sprayed) was 1.5 × 10^2 cfu/ml. For the same compound, the “average value of viable filamentous fungi counts on all materials examined” value (Pyricularia oryzae; 500 times solution sprayed) was 2.7 × 10^2 cfu/ml, the “Average value of viable bacteria counts” value (Erwinia chrysanthemi; 2 times solution sprayed) was 0 cfu/ml and the “Average value of viable bacteria counts” value (Erwinia chrysanthemi; 5 times solution sprayed) was 0 cfu/ml. For the same compound, the “Average value of viable bacteria counts” value (Erwinia chrysanthemi; 25 times solution sprayed) was 0 cfu/ml, the “Average value of viable bacteria counts” value (Erwinia chrysanthemi; 50 times solution sprayed) was 0 cfu/ml and the “Average value of viable bacteria counts” value (Erwinia chrysanthemi; 100 times solution sprayed) was 0 cfu/ml. The “Average value of viable bacteria counts” value (Erwinia chrysanthemi; 200 times solution sprayed) was 53 cfu/ml, the “Average value of viable bacteria counts” value (Erwinia chrysanthemi; 500 times solution sprayed) was 3.5 × 10^3 cfu/ml and the Degree of pathogenesis ([1]; 5 times solution) was 0. For the same compound, the “sterilization in test using potatoes (in words)” value ([1]; 5 to 10 times solution) was “complete sterilization”, the Degree of pathogenesis ([1]; 10 times solution) was 0 and the “sterilization effect in test using potatoes (in words)” value ([1]; 50 times solution) was “high sterilization effect”. The Degree of pathogenesis ([1]; 50 times solution) was 3 (20 to less than 40%), the “sterilization of blackleg pathogens (in words)” value ([2]; 2 to 10 times solutions) was “complete sterilization” and the “sterilization effect on blackleg pathogens (in words)” value ([2]; 25 to 50 times solutions) was “high sterilization effect”. The “sterilization of ring rot pathogens (in words)” value ([3]; 2 to 10 times solutions) was “complete sterilization”, the “sterilization effect on ring rot pathogens (in words)” value ([3]; 25 to 50 times solutions) was “high sterilization effect” and the “sterilization in material disinfection test (in words)” value [4] was “complete sterilization”. The “Average value of viable bacteria counts” value (Ralstonia solanacearum; 2 times solution sprayed) was 0 cfu/ml, the “Average value of viable bacteria counts” value (Ralstonia solanacearum; 5 times solution sprayed) was 0 cfu/ml and the “Average value of viable bacteria counts” value (Ralstonia solanacearum; 25 times solution sprayed) was 0 cfu/ml. The “Average value of viable bacteria counts” value (Ralstonia solanacearum; 50 times solution sprayed) was 0 cfu/ml, the “Average value of viable bacteria counts” value (Ralstonia solanacearum; 100 times solution sprayed) was 0 cfu/ml and the “Average value of viable bacteria counts” value (Ralstonia solanacearum; 200 times solution sprayed) was 18 cfu/ml. For the same compound, the “Average value of viable bacteria counts” value (Ralstonia solanacearum; 500 times solution sprayed) was 1.0 × 10^2 cfu/ml.
